This passage reports IC50 results from patent US7947706B2, “Substituted pyrrolopyridines, compositions containing them, manufacturing process therefor and use thereof” (Sanofi-Aventis Deutschland GmbH, priority 2005, dated 2011).

Holding throughout (format): biochemical
One assay addresses T1, FAK (Homo sapiens, UniProt Q05397).
T1 construct: The whole cDNA of human FAK; made in house; host or cells: baculovirus expression (pFastBac HTc)
As to the kind of experiment: FAK autophosphorylation inhibition, time-resolved fluorescence test (HTRF). The settings on record: autophosphorylation of His-tagged human FAK, 15 μM ATP, 1 hour at 37° C. How it is done:
The inhibitory activity of the compounds on FAK is determined by measuring the inhibition of autophosphorylation of the enzyme using a time-resolved fluorescence test (HTRF).
The whole cDNA of human FAK, the N-terminal end of which has been labelled with histidine, was cloned in a pFastBac HTc baculovirus expression vector. The protein was expressed and purified to about 70% homogeneity.
The kinase activity is determined by incubating the enzyme (6.6 μg/ml) with different concentrations of test compound in a 50 mM Hepes pH=7.2, 10 mM MgCl2, 100 μm Na3VO4, 15 μM ATP buffer for 1 hour at 37° C. The enzymatic reaction is stopped by adding Hepes pH=7.0 buffer containing 0.4 mM KF, 133 mM EDTA, 0.1% BSA and the labelling is performed, for 1 to 2 hours at room temperature, by adding to this buffer an anti-Histidine antibody labelled with XL665 and a tyrosine phosphospecific monoclonal antibody conjugated to europium cryptate (Eu—K). The characteristics of the two fluorophores are available in G. Mathis et al., Anticancer Research, 1997, 17, pages 3011-3014. The energy transfer from the excited europium cryptate to the acceptor XL665 is proportional to the degree of autophosphorylation of FAK. The long-lasting signal specific for XL-665 is measured in a Packard Discovery plate counter. All the tests are performed in duplicate and the average of the two tests is calculated. The inhibition of the autophosphorylation activity of FAK with compounds of the invention is expressed as a percentage of inhibition relative to a control whose activity is measured in the absence of test compound. To calculate the percentage inhibition, the ratio [signal at 665 nm/signal at 620 nm] is considered.
(TR-FRET usually uses a lanthanide donor and a delayed reading to cut background.)

The target of a further assay is T2, KDR (Homo sapiens, UniProt P35968).
T2 construct: The cytoplasmic domain of the human KDR enzyme; GST; made in house; host or cells: SF21 insect cells (baculovirus, pFastBac)
As to the kind of experiment: KDR substrate phosphorylation test, scintillation technique. The settings on record: GST-KDR cytoplasmic domain, PLCγ SH2-SH3 substrate, 33P-ATP, 1 hour at 37° C. As for the experimental part:
The inhibitory effect of the compounds is determined in an in vitro test of phosphorylation of substrate with the enzyme KDR via a scintillation technique (96-well plate, NEN).
The cytoplasmic domain of the human KDR enzyme was cloned in the form of a GST fusion in the pFastBac baculovirus expression vector. The protein was expressed in the SF21 cells and purified to about 60% homogeneity.
The KDR kinase activity is measured in 20 mM MOPS, 10 mM MgCl2, 10 mM MnCl2, 1 mM DTT, 2.5 mM EGTA, 10 mM b-glycerophosphate, pH=7.2, in the presence of 10 mM MgCl2, 100 μm Na3VO4, 1 mM NaF. 10 μl of the compound are added to 70 μl of kinase buffer containing 100 ng of KDR enzyme at 4° C. The reaction is initiated by adding 20 μl of solution containing 2 μg of substrate (SH2-SH3 fragment of PLCγ expressed in the form of a GST fusion protein), 2 μCi of γ^33P[ATP] and 2 μm of cold ATP. After incubation for 1 hour at 37° C., the reaction is stopped by adding 1 volume (100 μl) of 200 mM EDTA. The incubation buffer is removed, and the wells are washed three times with 300 μl of PBS. The radioactivity in each well is measured using a Top Count NXT radioactivity counter (Packard).
The background noise is determined by measuring the radioactivity in four different wells containing radioactive ATP and the substrate alone.
A total activity control is measured in four different wells containing all the reagents (γ^33P-[ATP], KDR and substrate PLCγ), but in the absence of compound.
The inhibition of the KDR activity with the compound of the invention is expressed as a percentage of inhibition of the control activity determined in the absence of compound.
Compound SU5614 (Calbiochem) (1 μM) is included in each plate as an inhibition control.

A further assay has as its target T3, Aurora B (Homo sapiens, UniProt Q96GD4).
T3 construct: His (N); made in house
As to the kind of experiment: Aurora1 (Aurora-B/INCENP-C3 complex) enzymatic test, NuMA substrate phosphorylation, radioactivity detection. The settings on record: 10 nM Aurora1 (Aurora-B/INCENP-C3), 500 nM NuMA, 1 μM ATP, 30 minutes, 37° C.; read-out: IC 50 Aurora B. As for the experimental part: The inhibitory effect of compounds with respect to the kinases Aurora1 and Aurora2 is determined by means of an enzymatic test using radioactivity detection.
The kinase activity of Aurora1 and Aurora2 is evaluated via the phosphorylation of the substrate Numa-histidine in the presence of radiolabelled ATP ([^33P]ATP) using 96-well Flashplate plates in which the nickel chelate is bound to the surface of the microplate. The amount of ^33P phosphate incorporated into the NuMA substrate is proportional to the activity of the enzyme Aurora1 or Aurora2.
Aurora1: Aurora-B/INCENP-C3 recombinant complex, purified to about 50%, the N-terminal end of Aurora-B of which has been labelled with histidine.
NuMA (nuclear protein that combines with the mitotic apparatus): 424-amino acid fragment, expressed in E. coli, the N-terminal end of which has been labelled with histidine, and used as substrate for the two Aurora enzymes.
The microplates used are 96-well Flash-Plate plates, nickel chelate (Perkin-Elmer, model SMP107).
The products to be evaluated are incubated in a reaction volume of 100 μL per well, in the presence of 10 nM of Aurora1 or Aurora2, 500 nM of NuMA substrate in a buffer composed of 50 mM Tris/HCl (pH 7.5), 50 mM NaCl, 5 mM MgCl2 (Aurora-B) or 10 mM MgCl2 (Aurora-A) and 1 mM DTT, at 37° C.
80 μL of enzyme/substrate incubation buffer are distributed in each well, followed by 10 μL of product to be evaluated, at variable concentrations. The reaction is initiated by adding 1 μM final of ATP containing 0.2 μCi of [^33P]ATP (10 μL). After incubating for 30 minutes, the reaction is quenched by simple removal of the reaction buffer and each well is washed twice with 300 μl of Tris/HCl buffer. The radioactivity is then measured in each well using a Packard, Top-Count model scintillation machine.
The control enzymatic activity of Aurora is expressed by the number of counts per minute obtained over 30 minutes after subtracting the background noise (reaction mixture containing no enzyme). The evaluation of the various test products is expressed as a percentage of inhibition of the Aurora activity relative to the control.

T3 sequence (Q96GD4 whole entry): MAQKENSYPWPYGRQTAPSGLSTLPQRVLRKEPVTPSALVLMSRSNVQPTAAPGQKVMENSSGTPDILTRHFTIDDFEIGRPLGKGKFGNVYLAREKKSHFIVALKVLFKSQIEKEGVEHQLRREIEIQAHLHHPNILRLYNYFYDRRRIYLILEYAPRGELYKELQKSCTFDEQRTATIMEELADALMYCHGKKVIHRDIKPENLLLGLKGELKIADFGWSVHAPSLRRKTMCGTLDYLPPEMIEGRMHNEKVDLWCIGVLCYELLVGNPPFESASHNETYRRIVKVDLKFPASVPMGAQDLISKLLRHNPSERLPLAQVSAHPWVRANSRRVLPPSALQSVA
T3 sequence (Q9NQS7 826-900 partner limits assumed): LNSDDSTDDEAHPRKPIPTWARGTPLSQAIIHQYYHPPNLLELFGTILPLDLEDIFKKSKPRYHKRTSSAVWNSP
T1 sequence (Q05397 whole entry): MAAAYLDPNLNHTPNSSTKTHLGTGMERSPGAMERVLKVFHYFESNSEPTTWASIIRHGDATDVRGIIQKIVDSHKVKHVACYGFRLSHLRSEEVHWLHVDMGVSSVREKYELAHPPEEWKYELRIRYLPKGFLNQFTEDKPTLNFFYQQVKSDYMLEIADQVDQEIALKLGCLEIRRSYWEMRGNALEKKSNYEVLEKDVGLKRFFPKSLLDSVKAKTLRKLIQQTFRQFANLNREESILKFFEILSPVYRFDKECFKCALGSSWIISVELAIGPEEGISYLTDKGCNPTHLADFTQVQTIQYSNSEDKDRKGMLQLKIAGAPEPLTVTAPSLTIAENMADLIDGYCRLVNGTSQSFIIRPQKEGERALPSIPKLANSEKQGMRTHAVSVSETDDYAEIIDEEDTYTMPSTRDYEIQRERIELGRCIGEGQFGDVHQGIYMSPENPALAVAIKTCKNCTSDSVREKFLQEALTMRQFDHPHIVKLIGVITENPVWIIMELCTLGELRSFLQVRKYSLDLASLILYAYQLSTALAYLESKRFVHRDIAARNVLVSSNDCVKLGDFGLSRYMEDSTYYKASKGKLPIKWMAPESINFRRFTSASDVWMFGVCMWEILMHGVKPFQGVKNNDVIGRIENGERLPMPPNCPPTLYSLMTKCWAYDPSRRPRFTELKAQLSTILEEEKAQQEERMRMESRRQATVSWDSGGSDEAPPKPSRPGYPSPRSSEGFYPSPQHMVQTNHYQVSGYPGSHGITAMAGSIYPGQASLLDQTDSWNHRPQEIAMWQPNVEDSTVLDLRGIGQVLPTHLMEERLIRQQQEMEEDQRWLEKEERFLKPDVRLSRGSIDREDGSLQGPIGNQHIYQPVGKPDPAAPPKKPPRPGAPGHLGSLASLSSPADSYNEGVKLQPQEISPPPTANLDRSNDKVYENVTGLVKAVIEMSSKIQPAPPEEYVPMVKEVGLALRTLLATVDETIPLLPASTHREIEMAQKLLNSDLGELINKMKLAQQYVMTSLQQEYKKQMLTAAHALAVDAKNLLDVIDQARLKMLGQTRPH
T2 sequence (P35968 786-1356 limits assumed): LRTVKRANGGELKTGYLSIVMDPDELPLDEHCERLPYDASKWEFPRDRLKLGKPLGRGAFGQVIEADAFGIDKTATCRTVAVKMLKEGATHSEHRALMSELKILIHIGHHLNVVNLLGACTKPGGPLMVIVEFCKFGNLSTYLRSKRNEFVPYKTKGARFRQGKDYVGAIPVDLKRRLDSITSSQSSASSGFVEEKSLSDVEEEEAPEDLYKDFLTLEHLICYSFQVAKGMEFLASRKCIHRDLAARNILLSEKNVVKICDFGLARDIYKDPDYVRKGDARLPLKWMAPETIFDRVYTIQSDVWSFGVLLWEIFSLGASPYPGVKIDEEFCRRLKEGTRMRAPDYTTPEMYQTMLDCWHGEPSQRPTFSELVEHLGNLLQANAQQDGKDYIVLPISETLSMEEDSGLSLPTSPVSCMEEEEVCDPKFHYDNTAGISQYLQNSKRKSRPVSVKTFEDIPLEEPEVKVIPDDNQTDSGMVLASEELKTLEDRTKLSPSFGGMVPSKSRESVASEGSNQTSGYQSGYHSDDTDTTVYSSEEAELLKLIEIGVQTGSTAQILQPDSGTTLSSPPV

With `NC(=O)c1[nH]c2cnccc2c1-c1ccc(NC(=O)Nc2cc(C(F)(F)F)ccc2F)cc1` [Example 1, 3-{4-[3-(2-Fluoro-5-trifluoromethylphenyl)ureido]phenyl}-1H-pyrrolo[2,3-c]pyridine-2-carboxamide], the IC50 at FAK is 164 nM; at KDR, 29 nM; at Aurora B, 138 nM.
As to `COc1ccc(C)cc1NC(=O)Nc1ccc(-c2c(C(N)=O)[nH]c3cnccc23)cc1` [Example 2, 3-{4-[3-(2-Methoxy-5-methylphenyl)ureido]phenyl}-1H-pyrrolo[2,3-c]pyridine-2-carboxamide], the IC50 against FAK was found to be 299 nM; on KDR it was 150 nM; on Aurora B it was 196 nM.
For `Cc1ccc(F)c(NC(=O)Nc2ccc(-c3c(C(N)=O)[nH]c4cnccc34)cc2)c1.O=C(O)C(F)(F)F` [Example 5, 3-{4-[3-(2-Fluoro-5-methylphenyl)ureido]phenyl}-1H-pyrrolo[2,3-c]pyridine-2-carboxamide trifluoroacetate], the figures for the IC50 against FAK, at KDR and on Aurora B were 249 nM, 258 nM and 67 nM, respectively.
On the same counts, the results for `NC(=O)c1[nH]c2ncccc2c1-c1ccc(NC(=O)Nc2cc(C(F)(F)F)ccc2F)cc1` [Example 7, 3-{4-[3-(2-Fluoro-5-trifluoromethylphenyl)ureido]phenyl}-1H-pyrrolo[2,3-b]pyridine-2-carboxamide] are 184 nM, 34 nM and 133 nM.
